# Experimental data published in US8916679B2, “Peptides binding to the dimer interface of thymidylate synthase for the treatment of cancer” (Universita′ degli Studi di Modena e Reggio Emilia, priority 2009, dated 2014).
# Where no end group is shown, it is not given here.
# Experiments:
# [1] = target: T1, hTS enzyme (human Thymidylate synthase) (Homo sapiens, UniProt P04818); assay: Peptidic inhibitor Ki value determination vs dUMP and vs mTHF; type: biochemical; conditions: Lineweaver-Burk analysis, FIG. 4
# T1 construct: made in house; host or cells: E. coli (printed as 'BL21 strain DH5α'), vector pQE80L
# A2780 cells = assay: Cell growth assay (crystal violet dye); type: cell-based, human; conditions: 10 μM, FIG. 7
# Description: Cultures were equilibrated with humidified 5% CO2 in air at 37° C.
# Cells were seeded into 24-well plates and allowed to attach overnight. Peptides were delivered into cells by means of a peptide delivery system, following the procedures indicated by the manufacturer. On selected days, after removal of the tissue culture medium, cell growth was determined by a modification of the crystal violet dye assay. The extracted dye was proportional to cell number.
# T1 sequence (P04818 with tags, fused parts or gaps): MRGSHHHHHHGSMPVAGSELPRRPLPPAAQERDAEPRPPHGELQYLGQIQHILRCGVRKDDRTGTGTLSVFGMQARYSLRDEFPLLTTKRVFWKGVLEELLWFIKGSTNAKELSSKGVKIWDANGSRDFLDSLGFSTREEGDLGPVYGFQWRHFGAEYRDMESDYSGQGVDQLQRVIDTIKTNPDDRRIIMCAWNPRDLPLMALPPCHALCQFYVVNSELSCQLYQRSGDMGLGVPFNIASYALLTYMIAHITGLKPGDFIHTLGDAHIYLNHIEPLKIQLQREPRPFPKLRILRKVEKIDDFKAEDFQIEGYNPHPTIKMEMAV
type of inhibition (kinetic data) [1],Sequence,relative activity against A2780 cells (A2780 cells)
competitive inhibition pattern,DFIHTLGD [SEQ ID NO: 1],
,YVVNSELS [SEQ ID NO: 44],particularly active
